Source: ChEMBL document CHEMBL1201862, “PubChem BioAssay data set” (2004)
Active and inactive are the calls of the source.

Legend:
HEK293 [1] = assay: inhibition of NOD1-driven NF-kB reporter – cell-based, luminescence, uHTS, primary screen (AID 1578); assay type: functional; conditions: Homo sapiens
HEK293 [2] = assay: cells; assay type: functional, cell-based; conditions: Homo sapiens
HEK293 [3] = assay: cells; assay type: functional, cell-based; conditions: Homo sapiens; remark: listed apart in the source
[4] = target: Nucleotide-binding oligomerization domain-containing protein 2 (Homo sapiens, UniProt Q9HC29); assay: inhibition of NOD2-driven NF-kB reporter – cell-based, luminescence, uHTS, HEK293 (AID 1566); assay type: functional
HEK293 [5] = assay: NOD2 signaling inhibitors in MDP-stimulated cells, cell-based, uHTS, luminescence (AID 2001); assay type: functional; conditions: Homo sapiens
HEK293 [6] = assay: cells; assay type: functional, cell-based; conditions: Homo sapiens; remark: listed apart in the source
[7] = microbe, parasite or virus in culture; assay type: functional; conditions: Mycobacterium tuberculosis
[8] = target: T1, Replicative DNA helicase DnaB (Mycobacterium tuberculosis, UniProt P9WMR3); assay: DnaB intein splicing inhibitors, dose response, biochemical, cell-free fluorescence (AID 449749); assay type: functional
T1 sequence (P9WMR3 whole entry): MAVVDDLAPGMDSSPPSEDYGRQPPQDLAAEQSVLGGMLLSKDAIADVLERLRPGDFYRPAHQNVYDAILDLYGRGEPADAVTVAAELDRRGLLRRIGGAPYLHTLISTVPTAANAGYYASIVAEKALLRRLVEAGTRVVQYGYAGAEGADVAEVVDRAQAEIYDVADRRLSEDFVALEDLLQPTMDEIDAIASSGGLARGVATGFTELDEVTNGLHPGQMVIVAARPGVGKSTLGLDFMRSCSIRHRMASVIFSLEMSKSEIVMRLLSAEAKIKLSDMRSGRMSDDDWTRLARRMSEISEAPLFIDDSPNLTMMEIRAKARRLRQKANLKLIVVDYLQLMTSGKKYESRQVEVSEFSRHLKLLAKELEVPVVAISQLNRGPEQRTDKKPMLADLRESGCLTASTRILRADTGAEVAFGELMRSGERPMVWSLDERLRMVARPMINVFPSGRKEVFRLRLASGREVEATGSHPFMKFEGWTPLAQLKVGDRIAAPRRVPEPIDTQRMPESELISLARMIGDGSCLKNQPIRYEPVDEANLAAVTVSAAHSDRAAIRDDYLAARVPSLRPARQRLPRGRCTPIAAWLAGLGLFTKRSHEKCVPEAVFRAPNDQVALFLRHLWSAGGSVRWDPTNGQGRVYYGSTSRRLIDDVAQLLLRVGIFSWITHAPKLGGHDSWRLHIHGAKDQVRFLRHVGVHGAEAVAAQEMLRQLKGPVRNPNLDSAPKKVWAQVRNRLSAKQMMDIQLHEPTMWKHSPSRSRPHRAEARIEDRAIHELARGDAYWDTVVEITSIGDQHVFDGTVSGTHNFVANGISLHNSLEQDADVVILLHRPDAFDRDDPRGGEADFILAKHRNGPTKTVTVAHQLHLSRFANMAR

Protein RecA = target: T2, Protein RecA (Mycobacterium tuberculosis, UniProt P9WHJ3); assay: Fluorescence Cell-Free Homogeneous Dose Retest to Identify Inhibitors of RecA-Intein Splicing Activity. [Related pubchem assays (depositor defined):AID2097, AID2223, AID489010, AID492950]; assay type: functional
T2 sequence (P9WHJ3 whole entry): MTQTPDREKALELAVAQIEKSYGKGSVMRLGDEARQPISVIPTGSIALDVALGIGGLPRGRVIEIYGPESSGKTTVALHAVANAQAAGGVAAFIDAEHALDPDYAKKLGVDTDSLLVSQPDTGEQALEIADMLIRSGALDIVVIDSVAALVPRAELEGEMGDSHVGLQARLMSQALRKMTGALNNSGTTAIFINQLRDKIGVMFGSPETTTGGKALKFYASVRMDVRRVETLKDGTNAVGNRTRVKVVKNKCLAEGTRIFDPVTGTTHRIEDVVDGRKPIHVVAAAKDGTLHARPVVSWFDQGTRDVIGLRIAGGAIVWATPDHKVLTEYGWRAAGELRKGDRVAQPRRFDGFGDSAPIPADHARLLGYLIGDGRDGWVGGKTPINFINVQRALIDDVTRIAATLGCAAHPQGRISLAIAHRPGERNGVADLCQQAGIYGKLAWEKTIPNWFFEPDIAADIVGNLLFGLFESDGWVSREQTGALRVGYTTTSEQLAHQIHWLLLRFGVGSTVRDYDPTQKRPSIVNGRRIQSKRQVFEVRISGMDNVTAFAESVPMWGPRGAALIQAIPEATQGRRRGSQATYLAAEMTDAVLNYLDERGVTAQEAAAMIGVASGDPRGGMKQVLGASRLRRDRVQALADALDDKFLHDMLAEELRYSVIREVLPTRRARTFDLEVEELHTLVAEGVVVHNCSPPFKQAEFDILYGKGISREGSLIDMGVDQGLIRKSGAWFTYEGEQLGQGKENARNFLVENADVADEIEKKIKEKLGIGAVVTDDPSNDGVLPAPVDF

Estrogen receptor = target: T3, Estrogen receptor (Homo sapiens, UniProt P03372);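 note: potency for inhibiting coactivator peptide recruitment to the receptor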
T3 sequence (P03372 whole entry): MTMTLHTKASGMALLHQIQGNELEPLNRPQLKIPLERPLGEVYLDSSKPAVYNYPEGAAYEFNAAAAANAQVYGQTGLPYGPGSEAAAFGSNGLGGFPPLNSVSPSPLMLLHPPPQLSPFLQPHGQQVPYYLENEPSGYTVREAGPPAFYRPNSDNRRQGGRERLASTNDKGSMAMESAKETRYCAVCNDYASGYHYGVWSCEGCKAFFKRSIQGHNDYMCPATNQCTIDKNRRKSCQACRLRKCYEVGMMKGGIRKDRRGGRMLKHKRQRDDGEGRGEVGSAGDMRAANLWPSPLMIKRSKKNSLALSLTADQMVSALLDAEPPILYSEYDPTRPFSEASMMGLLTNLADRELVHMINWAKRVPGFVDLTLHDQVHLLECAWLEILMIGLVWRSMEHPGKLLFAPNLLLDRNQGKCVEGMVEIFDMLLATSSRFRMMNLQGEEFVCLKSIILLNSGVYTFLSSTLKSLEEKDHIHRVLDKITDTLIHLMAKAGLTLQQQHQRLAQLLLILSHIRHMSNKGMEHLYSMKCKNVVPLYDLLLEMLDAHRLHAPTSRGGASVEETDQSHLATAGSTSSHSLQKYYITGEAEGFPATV

[9] = target: E3 ubiquitin-protein ligase XIAP (Homo sapiens, UniProt P98170); assay: Counter Screen using XIAP-Bir3 for Chemical Antagonists of Bir1/2 domains of IAP-family anti-apoptotic proteins. [Related pubchem assays (depositor defined):AID1018, AID1449, AID1514, AID1638, AID1749, AID1750, AID488957, AID488963]
[10] = target: DNA dC->dU-editing enzyme APOBEC-3A (Homo sapiens, UniProt P31941); assay: A3A deaminase inhibition for selectivity – biochemical, dose response (AID 504722); assay type: functional
[11] = target: DNA dC->dU-editing enzyme APOBEC-3G (Homo sapiens, UniProt Q9HC16); assay: Dose Response confirmation of small molecule APOBEC3G DNA Deaminase Inhibitors via a fluorescence-based single-stranded DNA deaminase assay. [Related pubchem assays (depositor defined):AID493012, AID493028]; assay type: functional
[12] = target: T4, Voltage-gated N-type calcium channel alpha-1B subunit/Amyloid beta A4 precursor protein-binding family A member 1 (Homo sapiens, UniProt Q00975+Q02410); assay type: protein assay
[13] = target: T4, Voltage-gated N-type calcium channel alpha-1B subunit/Amyloid beta A4 precursor protein-binding family A member 1; assay type: protein assay; remark: listed apart in the source
[14] = target: T5, Small ubiquitin-related modifier 1 (Homo sapiens, UniProt P63165); assay: SUMO1 protein interaction blockers, potency – biochemical, fluorescence polarization, uHTS hits, dose response (AID 624382); assay type: functional; conditions: read-out: IC50_Mean
[15] = target: T5, Small ubiquitin-related modifier 1; assay: SUMO1 protein-protein binding blockers, potency – biochemical, FRET, dose response (AID 624383); assay type: functional; conditions: read-out: IC50_Mean
[16] = target: T6, Microphthalmia-associated transcription factor (Homo sapiens, UniProt O75030); assay: reducers of TRPM1 reporter luminescence, concentration series – cell-based, SK-MEL-5, cherry-picked, set 3, MITF inhibitor project, dose response (AID 493073); assay type: functional;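 note: SK-MEL-5 melanoma cells with luciferase driven by the MITF target TRPM1 promoter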
T6 sequence (O75030 whole entry): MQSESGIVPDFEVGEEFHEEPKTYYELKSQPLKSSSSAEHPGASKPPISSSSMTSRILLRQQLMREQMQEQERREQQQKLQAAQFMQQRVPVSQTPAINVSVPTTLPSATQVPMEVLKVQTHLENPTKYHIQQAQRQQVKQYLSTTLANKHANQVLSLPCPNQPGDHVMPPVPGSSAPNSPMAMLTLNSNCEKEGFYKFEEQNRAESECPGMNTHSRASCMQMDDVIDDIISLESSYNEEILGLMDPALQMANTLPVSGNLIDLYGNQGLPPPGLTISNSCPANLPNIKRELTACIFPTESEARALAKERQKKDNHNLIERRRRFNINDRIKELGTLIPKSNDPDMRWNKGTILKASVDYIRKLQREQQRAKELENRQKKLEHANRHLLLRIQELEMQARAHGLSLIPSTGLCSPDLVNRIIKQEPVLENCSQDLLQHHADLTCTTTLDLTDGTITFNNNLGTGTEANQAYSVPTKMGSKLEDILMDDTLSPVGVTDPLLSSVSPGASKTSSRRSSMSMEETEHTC

[17] = Trypanosoma cruzi growth suppression in host cells – NIH3T3 host cells, beta-gal luminescence, confirmation (AID 2044); assay type: functional, cell-based;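 note: intracellular parasites grown in NIH/3T3 mouse fibroblasts as host cells; luminescent beta-galactosidase reporter signal from transgenic T. cruzi replicating inside host cells; inhibitors lower the luminescence signal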
[18] = NIH3T3 cell viability loss – ATP luminescence, mouse fibroblasts, counter-screen, dose response (AID 2010); assay type: functional, cell-based;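 note: cells exposed to compound for about 90 hours before reading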
CAAX prenyl protease 2 = target: T7, CAAX prenyl protease 2 (Saccharomyces cerevisiae S288c, UniProt Q03530); assay type: biochemical
T7 sequence (Q03530 whole entry): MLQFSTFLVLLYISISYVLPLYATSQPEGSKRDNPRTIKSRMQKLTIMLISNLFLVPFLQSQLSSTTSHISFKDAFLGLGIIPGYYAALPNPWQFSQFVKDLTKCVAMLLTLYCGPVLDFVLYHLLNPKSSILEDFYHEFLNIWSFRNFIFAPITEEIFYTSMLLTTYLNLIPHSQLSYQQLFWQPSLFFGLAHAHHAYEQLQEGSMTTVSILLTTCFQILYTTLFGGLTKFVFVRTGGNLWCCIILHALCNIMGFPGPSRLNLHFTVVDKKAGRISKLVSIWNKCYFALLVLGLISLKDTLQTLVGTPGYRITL

Fatty acid synthase = Fatty acid synthase (Homo sapiens, UniProt P49327); assay: inhibition of human FAS-TE enzyme activity – biochemical, kinetic fluorescence intensity, dose response (AID 624326); assay type: functional;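 note: rate of fluorescence rise from hydrolysis of a fluorogenic O-methyl fluorescein ester substrate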
Large T antigen = Large T antigen (Simian virus 40, UniProt P03070); assay type: functional, Betapolyomavirus macacae;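 note: Confirmatory-stage PubChem screen for compounds that inhibit SV40 T antigen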
[19] = target: T8, Rac GTPase-activating protein 1 (Homo sapiens, UniProt Q9H0H5); assay: blockers of MgcRacGAP-driven Rac1 GTP hydrolysis – biochemical, ADP Hunter fluorescence, primary and confirmatory, confirmation (AID 624330); assay type: functional
T8 sequence (Q9H0H5 whole entry): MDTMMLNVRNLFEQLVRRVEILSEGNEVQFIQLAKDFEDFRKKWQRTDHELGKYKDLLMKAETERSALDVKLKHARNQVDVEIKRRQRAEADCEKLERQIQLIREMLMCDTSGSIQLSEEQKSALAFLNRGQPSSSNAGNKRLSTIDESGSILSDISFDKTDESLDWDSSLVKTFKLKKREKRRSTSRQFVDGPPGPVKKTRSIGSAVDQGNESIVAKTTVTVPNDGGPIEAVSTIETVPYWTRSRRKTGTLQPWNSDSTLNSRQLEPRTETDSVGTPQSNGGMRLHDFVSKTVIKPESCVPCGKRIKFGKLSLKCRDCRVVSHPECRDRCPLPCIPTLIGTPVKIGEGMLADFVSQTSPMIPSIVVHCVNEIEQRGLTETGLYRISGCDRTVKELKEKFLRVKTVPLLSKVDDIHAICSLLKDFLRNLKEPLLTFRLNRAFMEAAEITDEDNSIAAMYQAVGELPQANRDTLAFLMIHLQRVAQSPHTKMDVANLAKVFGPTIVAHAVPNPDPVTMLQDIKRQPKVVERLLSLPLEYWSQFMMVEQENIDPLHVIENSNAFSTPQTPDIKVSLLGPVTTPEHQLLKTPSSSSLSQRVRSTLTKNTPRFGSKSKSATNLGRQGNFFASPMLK

T4 sequence (Q00975 whole entry): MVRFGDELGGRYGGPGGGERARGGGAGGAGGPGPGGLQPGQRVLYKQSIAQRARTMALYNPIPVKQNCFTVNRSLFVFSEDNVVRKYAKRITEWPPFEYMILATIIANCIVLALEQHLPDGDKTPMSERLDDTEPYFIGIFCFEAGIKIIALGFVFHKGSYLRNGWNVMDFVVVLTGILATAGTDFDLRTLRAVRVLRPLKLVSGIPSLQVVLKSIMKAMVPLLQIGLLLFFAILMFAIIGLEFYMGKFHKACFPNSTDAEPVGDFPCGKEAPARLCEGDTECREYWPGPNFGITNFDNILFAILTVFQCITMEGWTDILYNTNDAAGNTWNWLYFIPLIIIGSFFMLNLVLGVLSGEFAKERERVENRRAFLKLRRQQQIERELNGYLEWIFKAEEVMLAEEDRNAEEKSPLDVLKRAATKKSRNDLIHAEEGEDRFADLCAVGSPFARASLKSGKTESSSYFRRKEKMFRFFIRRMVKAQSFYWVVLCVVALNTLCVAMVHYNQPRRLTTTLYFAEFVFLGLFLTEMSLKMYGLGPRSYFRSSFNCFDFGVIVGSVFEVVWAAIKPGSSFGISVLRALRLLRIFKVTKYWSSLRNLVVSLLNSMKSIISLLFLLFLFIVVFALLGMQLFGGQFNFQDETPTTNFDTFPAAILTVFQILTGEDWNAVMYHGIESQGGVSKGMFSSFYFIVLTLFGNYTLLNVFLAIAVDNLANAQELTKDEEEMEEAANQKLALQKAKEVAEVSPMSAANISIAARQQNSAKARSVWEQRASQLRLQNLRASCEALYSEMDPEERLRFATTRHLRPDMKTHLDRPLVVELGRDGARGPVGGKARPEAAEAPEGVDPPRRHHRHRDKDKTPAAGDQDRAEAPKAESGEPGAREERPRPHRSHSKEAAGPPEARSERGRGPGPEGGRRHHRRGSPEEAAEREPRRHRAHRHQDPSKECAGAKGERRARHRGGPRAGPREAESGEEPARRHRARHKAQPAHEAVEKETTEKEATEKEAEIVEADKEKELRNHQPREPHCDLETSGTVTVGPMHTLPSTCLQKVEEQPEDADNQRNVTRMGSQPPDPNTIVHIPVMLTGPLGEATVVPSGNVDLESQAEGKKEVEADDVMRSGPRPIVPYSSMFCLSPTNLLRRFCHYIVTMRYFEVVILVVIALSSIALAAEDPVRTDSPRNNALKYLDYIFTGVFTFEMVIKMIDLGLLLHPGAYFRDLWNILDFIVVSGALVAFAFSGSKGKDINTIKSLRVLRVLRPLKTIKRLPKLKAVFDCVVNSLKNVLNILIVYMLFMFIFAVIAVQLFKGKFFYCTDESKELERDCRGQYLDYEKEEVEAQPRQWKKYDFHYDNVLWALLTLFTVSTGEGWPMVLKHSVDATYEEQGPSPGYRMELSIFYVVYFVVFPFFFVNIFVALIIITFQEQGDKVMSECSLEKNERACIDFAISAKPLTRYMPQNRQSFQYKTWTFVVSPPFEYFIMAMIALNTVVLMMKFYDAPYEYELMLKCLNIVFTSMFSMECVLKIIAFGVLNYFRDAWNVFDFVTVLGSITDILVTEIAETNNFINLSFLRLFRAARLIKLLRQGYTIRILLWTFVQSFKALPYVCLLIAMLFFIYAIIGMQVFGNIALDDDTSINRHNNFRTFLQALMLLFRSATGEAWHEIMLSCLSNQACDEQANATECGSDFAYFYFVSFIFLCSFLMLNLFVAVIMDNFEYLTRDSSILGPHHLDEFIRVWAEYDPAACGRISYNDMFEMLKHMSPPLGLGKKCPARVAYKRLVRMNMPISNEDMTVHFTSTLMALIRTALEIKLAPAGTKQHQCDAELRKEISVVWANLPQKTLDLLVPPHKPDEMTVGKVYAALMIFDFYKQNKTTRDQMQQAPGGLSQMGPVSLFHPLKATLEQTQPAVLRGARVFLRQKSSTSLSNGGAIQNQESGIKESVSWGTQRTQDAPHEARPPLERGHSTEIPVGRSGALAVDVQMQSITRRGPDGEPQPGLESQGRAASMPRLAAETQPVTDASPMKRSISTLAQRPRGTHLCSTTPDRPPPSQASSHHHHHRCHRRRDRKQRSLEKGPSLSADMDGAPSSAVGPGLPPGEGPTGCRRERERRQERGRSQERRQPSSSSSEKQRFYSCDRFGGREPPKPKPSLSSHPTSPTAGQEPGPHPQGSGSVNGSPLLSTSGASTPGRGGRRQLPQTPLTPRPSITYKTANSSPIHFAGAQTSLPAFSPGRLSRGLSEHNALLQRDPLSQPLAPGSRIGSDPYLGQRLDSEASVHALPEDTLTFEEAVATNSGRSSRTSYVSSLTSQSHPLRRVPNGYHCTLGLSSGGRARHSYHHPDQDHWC
T4 sequence (Q02410 whole entry): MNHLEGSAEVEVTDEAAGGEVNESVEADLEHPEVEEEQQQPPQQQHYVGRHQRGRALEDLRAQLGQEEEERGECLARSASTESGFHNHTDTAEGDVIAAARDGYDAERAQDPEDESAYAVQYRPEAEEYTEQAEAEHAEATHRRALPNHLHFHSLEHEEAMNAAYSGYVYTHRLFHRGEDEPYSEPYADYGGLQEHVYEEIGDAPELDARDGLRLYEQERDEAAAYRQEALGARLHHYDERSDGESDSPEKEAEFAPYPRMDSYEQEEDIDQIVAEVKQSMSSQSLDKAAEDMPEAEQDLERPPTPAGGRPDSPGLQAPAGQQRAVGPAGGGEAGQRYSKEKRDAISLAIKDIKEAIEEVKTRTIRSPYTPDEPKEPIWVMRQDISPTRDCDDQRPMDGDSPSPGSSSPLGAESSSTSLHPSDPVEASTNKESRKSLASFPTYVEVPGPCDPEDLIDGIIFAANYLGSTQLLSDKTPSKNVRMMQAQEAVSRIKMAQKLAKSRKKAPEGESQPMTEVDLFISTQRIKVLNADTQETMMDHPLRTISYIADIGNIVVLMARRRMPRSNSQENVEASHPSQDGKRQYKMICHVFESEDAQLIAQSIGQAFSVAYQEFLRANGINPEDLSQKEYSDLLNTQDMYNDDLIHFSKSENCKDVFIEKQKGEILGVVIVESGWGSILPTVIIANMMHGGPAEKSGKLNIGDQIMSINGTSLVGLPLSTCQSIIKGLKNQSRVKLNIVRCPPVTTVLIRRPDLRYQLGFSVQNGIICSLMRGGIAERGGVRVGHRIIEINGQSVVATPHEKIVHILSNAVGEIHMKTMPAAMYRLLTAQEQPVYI
Chain of DNA dC->dU-editing enzyme APOBEC-3G (Q9HC16 whole entry): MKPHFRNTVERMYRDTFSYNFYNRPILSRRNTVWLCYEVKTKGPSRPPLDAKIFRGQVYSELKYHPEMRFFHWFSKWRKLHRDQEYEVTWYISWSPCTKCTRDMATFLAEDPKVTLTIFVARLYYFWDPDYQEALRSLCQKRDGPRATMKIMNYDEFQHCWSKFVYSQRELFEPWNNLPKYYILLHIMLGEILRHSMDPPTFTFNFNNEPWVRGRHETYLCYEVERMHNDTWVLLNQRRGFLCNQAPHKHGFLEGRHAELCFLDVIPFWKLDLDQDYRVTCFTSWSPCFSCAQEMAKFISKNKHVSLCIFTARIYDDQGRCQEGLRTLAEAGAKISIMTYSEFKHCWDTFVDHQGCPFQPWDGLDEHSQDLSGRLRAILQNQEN
Chain of DNA dC->dU-editing enzyme APOBEC-3A (P31941 whole entry): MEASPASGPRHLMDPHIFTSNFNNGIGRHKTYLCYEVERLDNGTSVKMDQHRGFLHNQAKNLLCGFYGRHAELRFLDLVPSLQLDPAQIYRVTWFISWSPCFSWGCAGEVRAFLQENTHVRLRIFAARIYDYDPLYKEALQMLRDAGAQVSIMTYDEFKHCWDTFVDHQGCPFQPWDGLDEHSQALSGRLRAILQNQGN
T5 sequence (P63165 whole entry): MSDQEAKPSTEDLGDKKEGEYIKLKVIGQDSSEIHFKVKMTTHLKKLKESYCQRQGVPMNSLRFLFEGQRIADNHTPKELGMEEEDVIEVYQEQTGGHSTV
Chain of Nucleotide-binding oligomerization domain-containing protein 2 (Q9HC29 whole entry, the tested form may be a part): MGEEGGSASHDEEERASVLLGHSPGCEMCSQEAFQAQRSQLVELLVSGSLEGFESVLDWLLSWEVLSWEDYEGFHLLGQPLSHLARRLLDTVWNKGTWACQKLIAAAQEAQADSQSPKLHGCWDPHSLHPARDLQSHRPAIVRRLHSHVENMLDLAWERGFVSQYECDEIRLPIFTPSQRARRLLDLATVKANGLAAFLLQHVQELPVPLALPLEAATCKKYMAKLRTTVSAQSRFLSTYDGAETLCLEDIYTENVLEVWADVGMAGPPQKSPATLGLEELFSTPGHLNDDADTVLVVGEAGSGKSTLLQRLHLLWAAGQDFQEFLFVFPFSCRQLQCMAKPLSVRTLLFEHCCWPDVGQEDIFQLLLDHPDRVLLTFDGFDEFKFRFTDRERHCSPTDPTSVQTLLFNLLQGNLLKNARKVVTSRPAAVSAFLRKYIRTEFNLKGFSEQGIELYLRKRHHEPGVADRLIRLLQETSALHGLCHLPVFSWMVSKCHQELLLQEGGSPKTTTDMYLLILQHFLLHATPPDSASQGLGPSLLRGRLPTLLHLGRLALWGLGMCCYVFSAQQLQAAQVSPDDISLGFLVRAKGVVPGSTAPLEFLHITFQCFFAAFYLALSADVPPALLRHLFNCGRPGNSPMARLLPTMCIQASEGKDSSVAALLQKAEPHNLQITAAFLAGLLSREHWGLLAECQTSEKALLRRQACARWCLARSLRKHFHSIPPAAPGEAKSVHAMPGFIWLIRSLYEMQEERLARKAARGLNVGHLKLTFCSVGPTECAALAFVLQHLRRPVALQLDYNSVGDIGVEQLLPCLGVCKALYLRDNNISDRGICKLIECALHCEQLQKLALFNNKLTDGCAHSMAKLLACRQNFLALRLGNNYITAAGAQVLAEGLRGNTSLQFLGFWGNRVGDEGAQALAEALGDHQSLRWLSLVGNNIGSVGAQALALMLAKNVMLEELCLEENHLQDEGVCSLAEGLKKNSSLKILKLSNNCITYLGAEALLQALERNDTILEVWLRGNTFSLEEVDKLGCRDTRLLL

SMILES: COc1ccc(-n2nc3c(c2NC(=O)CCl)CSC3)cc1
- EC50 (HEK293 [1]): 13.1 µM (active)
- IC50 (HEK293 [2]): 7.89 µM (active)
- IC50 (HEK293 [3]): > 20 µM (inactive)
- EC50 [4]: > 20 µM (inactive)
- IC50 (HEK293 [5]): 14.8 µM (inactive)
- IC50 (HEK293 [6]): > 20 µM (inactive)
- CC50 [7]: 18 µM (active)
- AC50 [8]: 13.6 µM (active)
- EC50 (Protein RecA): > 380 µM (inconclusive)

SMILES: O=C(NCc1ccc(Cl)cc1)c1cc(-c2cccs2)on1
- IC50 (Estrogen receptor): > 50 µM (not active)
- IC50 [9]: > 20 µM (inactive)

SMILES: S=c1nc(-c2ccccc2)n(-c2ccccc2)[nH]1
- IC50 [10]: > 100 µM (inactive)
- IC50 [11]: 7.02 µM (active)

SMILES: CC(OC(=O)c1ccc(NC(=O)CC#N)cc1)C(=O)Nc1ccc(Oc2ccccc2)cc1 (configuration not stated)
- IC50 [12]: 8.36 µM (active)
- IC50 [13]: > 50 µM (inactive)
- IC50 [14]: > 66.6 µM (inactive)
- IC50 [15]: 17.1 µM (active)

SMILES: C[C@H]1CCC[C@]2(C)C[C@H]3OC(=O)C(CN4CCCCCC4)[C@H]3C=C12 (some centres not stated)
- AC50 [16]: 13.9 µM (active)

SMILES: CCOC(=O)c1nnn(-c2ccc([N+](=O)[O-])cc2[N+](=O)[O-])c1C
- EC50 [17]: 0.647 µM (active)
- EC50 [18]: > 60 µM (not active)
- AC50 [16]: 8.85 µM (active)

SMILES: O=S(=O)(c1ccc(-c2csc(Nc3ccc(F)cc3)n2)cc1)N1CCCC1
- AC50 (CAAX prenyl protease 2): 19.8 µM (active)
- IC50 (Fatty acid synthase): 15.2 µM (active)

SMILES: Cc1cc(-c2nnc(S)n2/N=C/c2cccs2)[nH]n1
- IC50 (Large T antigen): 55 µM (active)
- IC50 [10]: > 100 µM (inactive)
- IC50 [11]: 2.9 µM (active)
- IC50 [19]: 87.8 µM (active)
